Laboratory results from patent US20250122202A1, “EGFR INHIBITOR, PREPARATION METHOD THEREFOR AND USE THEREOF” (SHANDONG NEW TIME PHARMACEUTICAL CO., LTD., priority 2021, published 2025).

Tests used:
[1] = test system: KC-1362 BaF3-EGFR D770-N771 ins NPG cells; experiment: Anti-proliferative activity on KC-1362 BaF3-EGFR D770-N771 ins NPG cells; type: cell-based; conditions: Ba/F3 EGFR
[2] = test system: PC-9 EGFR-Del19; experiment: Cell proliferation inhibition experiment (CCK-8), PC-9; type: cell-based; conditions: Homo sapiens, 72 h
Excerpt: Inhibition rate %=[(A0−AS)/(A0−AC)]×100%.

[3] = target: EGFR-Del19/T790M/C797S kinase (Homo sapiens, UniProt P00533, C797S/T790M, form not given); experiment: In-vitro enzyme experiment 2 (HTRF kinase assay), EGFR Del19 T790M C797S; type: biochemical; conditions: read-out: enzyme inhibition IC50 (nM) EGFR-Del19/T790M/C797S
Chain of EGFR-Del19/T790M/C797S kinase (P00533 25-1210 T790M/C797S limits assumed, form open): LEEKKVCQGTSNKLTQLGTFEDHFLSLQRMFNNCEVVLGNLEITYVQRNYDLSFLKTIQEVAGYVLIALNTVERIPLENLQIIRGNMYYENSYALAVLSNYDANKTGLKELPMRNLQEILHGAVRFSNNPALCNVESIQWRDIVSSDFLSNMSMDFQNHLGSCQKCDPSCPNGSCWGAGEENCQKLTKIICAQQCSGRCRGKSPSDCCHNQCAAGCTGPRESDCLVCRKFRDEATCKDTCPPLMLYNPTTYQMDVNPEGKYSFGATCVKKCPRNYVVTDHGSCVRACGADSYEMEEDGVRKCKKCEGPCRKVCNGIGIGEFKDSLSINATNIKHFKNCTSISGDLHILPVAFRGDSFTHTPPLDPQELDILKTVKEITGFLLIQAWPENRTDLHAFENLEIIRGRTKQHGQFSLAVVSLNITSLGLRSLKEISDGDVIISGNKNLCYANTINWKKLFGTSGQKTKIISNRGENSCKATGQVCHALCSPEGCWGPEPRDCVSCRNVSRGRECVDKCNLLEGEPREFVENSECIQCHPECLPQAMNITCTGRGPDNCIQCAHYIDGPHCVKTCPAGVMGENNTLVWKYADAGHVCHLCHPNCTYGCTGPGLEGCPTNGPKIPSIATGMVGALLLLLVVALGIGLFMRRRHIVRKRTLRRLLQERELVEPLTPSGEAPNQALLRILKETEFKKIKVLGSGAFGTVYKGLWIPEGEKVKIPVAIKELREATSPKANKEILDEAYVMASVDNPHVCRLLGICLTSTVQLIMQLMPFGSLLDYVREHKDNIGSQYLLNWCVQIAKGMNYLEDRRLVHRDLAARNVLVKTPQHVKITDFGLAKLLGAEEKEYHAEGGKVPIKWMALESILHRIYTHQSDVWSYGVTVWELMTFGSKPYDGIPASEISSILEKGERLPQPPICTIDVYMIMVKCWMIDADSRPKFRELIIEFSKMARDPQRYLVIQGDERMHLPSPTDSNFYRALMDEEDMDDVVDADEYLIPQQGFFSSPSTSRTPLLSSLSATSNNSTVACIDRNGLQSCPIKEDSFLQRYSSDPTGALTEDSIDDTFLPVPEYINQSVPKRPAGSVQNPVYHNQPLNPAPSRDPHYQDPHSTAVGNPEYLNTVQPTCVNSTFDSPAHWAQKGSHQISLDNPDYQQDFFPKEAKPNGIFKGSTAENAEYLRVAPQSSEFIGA
Method: The specific experiment was as follows: • 1. […] Test method of activity of compound • a) a compound diluent was transferred to each well of an assay plate (784075, Greiner) using Echo 550; • b) the assay plate was sealed and centrifuged at 1,000 g for 1 min; • c) 2×EGFR (D770-N771 ins NPG T790M) was prepared in a 1× kinase buffer; • d) 5 μl of the 2×EGFR (D770-N771 ins NPG T790M) was added to a 384-well assay plate (784075, Greiner); • e) the assay plate was centrifuged at 1,000 g for 30 s and incubated at room temperature for 10 min; • f) 2× TK-substrate-biotin (2 μM) and ATP were added to the 1× kinase buffer and mixed; • g) the reaction was started after adding 5 μl of the TK-substrate-biotin (2 μM) and ATP mixture; • h) the assay plate was centrifuged at 1,000 g for 30 s; and the assay plate was sealed and incubated at room temperature for 40 min; • i) 4× Sa-XL 665 was prepared in an HTRF detection buffer; • j) 5 μl of the Sa-XL 665 and 5 μl of a TK-antibody-cryptate were added to each well of the assay plate; • k) the assay plate was centrifuged at 1,000 g for 30 s and incubated at room temperature for 1 h; and • l) fluorescence signals at 615 nm (cryptate) and 665 nm (XL665) were read on an Envision 2104 reader. • 3. Data analysis • 3.1 Calculation of ratio (665/615 nm) of each well • 3.2 Calculation of inhibition rate
[formula] • 3.3 Calculation of IC50 value of compound and drawing dose-effect curve of compound • IC50 values were calculated using GraphPad 6.0 by applying a non-linear regression curve (dose-effect relationship-variable slope) of the logarithm of the compound concentration versus the inhibition rate.
The preparation of the kinase buffer, the test method of the activity of the compound, and the data analysis referred to the relevant definitions in example 117, wherein step c) of the test method of the activity of the compound was replaced by preparing 2×EGFR Del19 T790M C797S in the 1× kinase buffer.

## CN1CCN(c2ccc(Nc3nc(N[C@H]4CC[C@@H](CO)CC4)c4c(C(=O)c5ccc(F)cc5)c[nH]c4n3)cc2)CC1 [Example 60]
[1]
  IC50: 70 nM
[2]
  IC50: < 0.1 µM
[3]
  IC50: < 10 nM
